# Test results as given in article PMC3781034, “A Small-Animal Pharmacokinetic/Pharmacodynamic PET Study of Central Serotonin 1A Receptor Occupancy by a Potential Therapeutic Agent for Overactive Bladder” (PLoS ONE, 2013).
# Read-outs that look alike come from different tables or passages of the source.
# Target: T1, 5-HT1A receptors (Rattus norvegicus, UniProt P19327)
# T1 construct: occupancy of 5-HT1A receptors in living Sprague-Dawley rat brains; from tissue; host or cells: living Sprague-Dawley rat brain (medial prefrontal cortex, dorsal raphe nucleus), in vivo PET
# T1 sequence (P19327 1-422): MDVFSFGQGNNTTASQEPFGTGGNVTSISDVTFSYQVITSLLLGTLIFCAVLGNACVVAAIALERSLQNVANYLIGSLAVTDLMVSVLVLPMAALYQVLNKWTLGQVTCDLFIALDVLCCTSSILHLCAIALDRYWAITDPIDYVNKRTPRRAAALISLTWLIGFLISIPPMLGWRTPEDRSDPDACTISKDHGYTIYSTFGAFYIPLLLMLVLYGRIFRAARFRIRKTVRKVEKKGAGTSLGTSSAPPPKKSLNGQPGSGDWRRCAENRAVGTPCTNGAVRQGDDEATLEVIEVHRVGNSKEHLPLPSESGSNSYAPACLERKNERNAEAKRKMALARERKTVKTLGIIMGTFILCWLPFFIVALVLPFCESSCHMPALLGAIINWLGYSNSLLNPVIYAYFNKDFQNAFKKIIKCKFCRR
# Experiment: PET 5-HT1A receptor occupancy, time-course study (effect compartment model)
# Format: in vivo, Sprague-Dawley rat
# Settings: for EC50: time-course study
# Experimental: All PET scans for rats were performed with a small animal-dedicated microPET FOCUS 220 system (Siemens Medical Solutions USA, Knoxville, TN, USA), which yields a 25.8 cm (transaxial) × 7.6 cm (axial) field of view (FOV) and a spatial resolution of 1.3 mm full width at half maximum at the center of FOV [8]. The rats were anesthetized with 1.5-2% isoflurane in air (2 L/min flow rate). Their body temperature was controlled using homeothermic controller and plate with a rectal probe, and their heart rates and arterial oxygen saturations were continuously measured by a pulse oximeter (CANL-425SVA; Med Associates, St. Albans, VT, USA). We also monitored respiration rates of these animals with a custom-made monitoring system (Nagano Electronics, Hitachinaka, Japan). A 20-min transmission scan for attenuation correction was performed using a spiraling ^68Ge-^68Ga point source. Subsequently, list-mode scans were carried out for 90 min. All list-mode data were sorted and Fourier rebinned into two-dimensional sinograms (frames: 4 × 1, 8 × 2, and 14 × 5 min). Images were thereafter reconstructed using two-dimensional filtered back-projection with a 0.5-mm Hanning filter. [^11C]-WAY-100635 was injected via the tail vein as a single bolus at the start of emission scanning. The injected dose of the radiotracer was 85.3 ± 28.6 MBq/rat (mean ± SD).
# Anatomical regions of interest (ROIs) were placed on the medial prefrontal cortex (MPFC) and dorsal raphe nucleus (DRN) using PMOD® image software (PMOD Group, Zurich, Switzerland) with reference to the MRI template. Radioligand binding was examined by calculating the binding potential (BP ND; ratio at equilibrium of specifically-bound radioligand to that of nondisplaceable radioligand in tissue) based on a simplified reference tissue model (SRTM) using the cerebellar time-radioactivity curve as reference.
# Occupancy of 5-HT1A receptors by E2110 was calculated using the following equation:
# RO(%)=BPND,baseline−BPND,drug/BPND,baseline×100 (2)
# where BP ND, baseline and BP ND, drug are estimated BP ND at baseline and following drug administration, respectively.
# To examine the dose-RO relationship at a single time point, four male SD rats, which had undergone a baseline PET imaging in advance, were scanned with PET at 4 hours after being pretreated with 4 oral doses (0.3, 1, 3, 10 mg/kg) of E2110. In this assay, approximately 250 µL of blood samples were collected from the tail vein upon initiation of the scan for quantification of plasma concentration of E2110. We further examined RO at different time points after the drug administration by conducting PET scans of four male SD rats at 2, 4, 6 or 8 hours after pretreatment with a single oral dose of 1 mg/kg E2110. In addition to this series of PET assays for male rats, pilot PET scans for female rats (n = 3) were carried out at baseline and 4 hours after oral administration of 0.1 mg/kg E2110 to examine whether relationships between plasma concentration of E2110 and RO by this drug in the brain are consistent between two genders. In all experiments, scans for the same individual receiving E2110 were conducted more than 1 week apart.
# The effect compartment model is illustrated in Figure 2. The mean plasma concentration profile of E2110 in each of four rats was fitted by two-compartment model with first order absorption and elimination. A sigmoid Emax model (Equation 4) based on the concentration in the effect compartment was fitted to the PD (RO) data. PK and PD models were linked using an effect compartment model described by the following equation: […]
# where Cp and Ce are concentrations of E2110 in the plasma and effect compartments, respectively, and ke0 represents the equilibration rate constant for the effect compartment. PK and PD parameters were estimated by using […] (Version 2.01, MicroMath Research, UT, USA).
smiles,measurement,setting,value
"CNC(=O)c1ccc2ccn(C3CCN(CCc4c(OC)ccc5c4OC(C)(C)CC5=O)CC3)c2c1.O=C(O)/C=C/C(=O)O [E2110, 1-{1-[2-(7-Methoxy-2,2-dimethyl-4-oxochroman-8-yl)ethyl]piperidine-4-yl}-N-methyl-1H-indole-6-carboxamide fumarate]",EC50,"DRN, 1 mg/kg oral, male SD rats, effect compartment model, read-out: EC50 for occupancy of 5-HT1A receptors (converted)",7.38 nM
same,EC50,"DRN, effect compartment model, read-out: EC50 for occupancy of 5-HT1A receptors (converted)",5.94 nM
same,EC50,"DRN, read-out: EC50 for 5-HT1A RO, value in parentheses (free concentration-based)",0.44 nM
same,EC50,"MPFC, 1 mg/kg oral, male SD rats, effect compartment model, read-out: EC50 for occupancy of 5-HT1A receptors (converted)",5.85 nM
same,EC50,"MPFC, effect compartment model, read-out: EC50 for occupancy of 5-HT1A receptors (converted)",4.74 nM
same,EC50,"MPFC, read-out: EC50 for 5-HT1A RO, value in parentheses (free concentration-based)",0.35 nM
same,half-life,"Sprague-Dawley, rat, effect compartment model, 1 mg/kg oral, male SD rats, read-out: CNS equilibration t1/2 (from ke0) (converted)",1.4 h
same,5-HT1A RO measured by PET versus simulated RO,"female rats, 4 hours after oral 0.1 mg/kg, pilot study n = 3",in good agreement with calculated data
